Data: ChEMBL document CHEMBL3044943, “Nematicidal prenylated flavanones from Phyllanthus niruri” (2008)
In brackets after ≈: the same amount, converted by molar mass.

Experiments:
[1] = tested on: Rotylenchulus reniformis; experiment: Nematicidal activity against Rotylenchulus reniformis (reniform nematode) after 72 hr; type: functional
[2] = tested on: Meloidogyne incognita; experiment: Nematicidal activity against Meloidogyne incognita (root-knot nematode) second stage juveniles after 72 hr; type: functional

| SMILES | LC50 [1] | LC50 [2] |
| --- | --- | --- |
| CC(C)=CCc1cccc2c1OC(c1ccc(O)cc1)CC2=O (stereo not given) | 3.3 µg/mL (≈ 10.7 µM) | 14.5 µg/mL (≈ 47 µM) |
| CC(C)=CCc1cccc2c1OC(c1ccccc1)CC2=O (stereo not given) | 103 µg/mL (≈ 352 µM) | 70.9 µg/mL (≈ 242 µM) |
| CNC(=O)Oc1cccc2c1OC(C)(C)C2 [CARBOFURAN] | 3.1 µg/mL (≈ 14 µM) |  |
